{"source": "patent US20230365625A1", "about": "“METHODS FOR TREATING AND/OR PREVENTING UNDESIRABLE SEQULAE OF NASAL TURBINOPLASTY OR FUNCTIONAL ENDOSCOPIC SINUS SURGERY” (3-D Matrix, Ltd., priority 2022, published 2023)", "key": {"[1]": {"details": "2.5% in water; cited from earlier work"}, "[2]": {"details": "in solution before DMEM; RADA16 assumed 2.5% wt/vol, IEIK13 concentration unknown; cited from earlier work"}, "[3]": {"details": "1% in water; cited from earlier work"}, "[4]": {"test": "pH of the supplied solution", "format": "physicochemical", "details": "2.5% weight/volume solution in water", "excerpt": "Details of the Sheep Study—Endoscopic nasal surgery targeting the turbinates and sinuses has become a cornerstone in managing chronic rhinosinusitis. A sheep model was chosen to test treatment of an endoscopic surgical wound deep in the sinuses with PuraSinus (RADA16-I; (SEQ ID NO:1) 2.5% in water) compared to controls as a model for […] in humans both due to the size of the animals and the suitability of the sheep model for comparison with this kind of surgery in humans as described below. PuraSinus (ARTG: 267486; (SEQ ID NO:1)) was supplied by 3-D Matrix Europe SAS as a 2.5% weight/volume solution of synthetic SAPs in water having a pH of about 2.3. Upon contact with physiologic tissue and/or liquid like blood, the pH and/or ionic strength of PuraSinus (SEQ ID NO:1) increases, triggering the self-assembly of the peptides into nanofibers, forming a beta-sheet network similar to an extracellular matrix. At a macroscopic level, the viscous solution forms a hydrogel that seals the opened vessels resulting in hemostasis. PuraSinus (SEQ ID NO:1) is biocompatible and free from infectious agents and is resorbed over time although some residue may remain for ≥30 days. It is supplied sterile in a syringe and delivered through a nozzle supplied by the manufacturer. It is stored at 2-8° C. […]"}, "[5]": {"system": "mucosa at the operated middle turbinate sites", "test": "Histopathology of the surgical site at 6 weeks (H&E, 6 markers of wound healing), sheep model", "format": "in vivo, Merino sheep", "description": "Termination—At day 42, the animals were euthanized with standard terminal procedures through an intravenous injection of sodium pentobarbital. Post-termination, the mucosa at the operated middle turbinate sites were excised and prepared via hematoxylin and eosin staining by a veterinary histopathologist using 6 different markers of wound healing as shown in Table 3. [table] Histopathology observations—Vertical incisions through the roof and floor of the nasal cavity were performed during necropsy after endoscopic evaluation. This allowed both lateral nasal walls to be opened outwards from the septum whereby the operated mucosa adjacent to the vomer could be easily identified and excised atraumatically. Specimens were preserved in 10% neutral buffered formalin and transported for hematoxylin and eosin staining and slide preparation. Example specimens are shown in FIGS. 4A and 4B for PuraSinus treated tissue and FIGS. 5A and 5B for FLOSEAL treated tissue. Individual sample observations are presented in Appendix 3."}, "[6]": {"details": "individual site, 6 weeks, scale 0-3, listed as P"}, "[7]": {"details": "individual site, 6 weeks, scale −1-1, listed as P"}}, "note": "Where “and” joins values, the source holds several entries; their conditions need not be identical. Equal values may be shown once. Entries after “also recorded” stand apart in the source; their conditions may differ.", "data": [{"smiles": "CC(=O)N[C@@H](CCCNC(=N)N)C(=O)N[C@@H](C)C(=O)N[C@@H](CC(=O)O)C(=O)N[C@@H](C)C(=O)N[C@@H](CCCNC(=N)N)C(=O)N[C@@H](C)C(=O)N[C@@H](CC(=O)O)C(=O)N[C@@H](C)C(=O)N[C@@H](CCCNC(=N)N)C(=O)N[C@@H](C)C(=O)N[C@@H](CC(=O)O)C(=O)N[C@@H](C)C(=O)N[C@@H](CCCNC(=N)N)C(=O)N[C@@H](C)C(=O)N[C@@H](CC(=O)O)C(=O)N[C@@H](C)C(N)=O", "note": "[PuraSinus, Ac-RADARADARADARADA-NH2]", "values": [{"measurement": "Storage modulus G′", "setting": "[1]", "result": "about 350 Pa"}, {"measurement": "Median loss modulus G″", "setting": "[2]", "result": 24, "unit": "Pa"}, {"measurement": "Median storage modulus G′", "setting": "[2]", "result": 384, "unit": "Pa"}, {"measurement": "Increase in storage modulus G′ after DMEM treatment relative to before", "setting": "[3]", "result": 43.5, "unit": "fold"}, {"measurement": "pH", "setting": "[4]", "result": "about 2.3"}, {"measurement": "Angiogenesis (A): number of sites Grade 0", "setting": "[5]; 6 weeks", "result": 9}, {"measurement": "Angiogenesis (A): number of sites Grade 1", "setting": "[5]; 6 weeks", "result": 6}, {"measurement": "Angiogenesis (A): number of sites Grade 2", "setting": "[5]; 6 weeks", "result": 4}, {"measurement": "Angiogenesis (A): number of sites Grade 3", "setting": "[5]; 6 weeks", "result": 1}, {"measurement": "Epithelial erosion (EE): number of sites Grade 0", "setting": "[5]; 6 weeks", "result": 5}, {"measurement": "Epithelial erosion (EE): number of sites Grade 1", "setting": "[5]; 6 weeks", "result": 8}, {"measurement": "Epithelial erosion (EE): number of sites Grade 2", "setting": "[5]; 6 weeks", "result": 6}, {"measurement": "Epithelial erosion (EE): number of sites Grade 3", "setting": "[5]; 6 weeks", "result": 1}, {"measurement": "Goblet cells (GC): number of sites Grade 0", "setting": "[5]; 6 weeks", "result": 6}, {"measurement": "Goblet cells (GC): number of sites Grade +1", "setting": "[5]; 6 weeks", "result": 6}, {"measurement": "Goblet cells (GC): number of sites Grade −1", "setting": "[5]; 6 weeks", "result": 8}, {"measurement": "Inflammatory infiltrate (II): number of sites Grade 0", "setting": "[5]; 6 weeks", "result": 3}, {"measurement": "Inflammatory infiltrate (II): number of sites Grade 1", "setting": "[5]; 6 weeks", "result": 13}, {"measurement": "Inflammatory infiltrate (II): number of sites Grade 2", "setting": "[5]; 6 weeks", "result": 4}, {"measurement": "Inflammatory infiltrate (II): number of sites Grade 3", "setting": "[5]; 6 weeks", "result": 0}, {"measurement": "Sero-mucous glands (SMC): number of sites Grade 0", "setting": "[5]; 6 weeks", "result": 14}, {"measurement": "Sero-mucous glands (SMC): number of sites Grade +1", "setting": "[5]; 6 weeks", "result": 0}, {"measurement": "Sero-mucous glands (SMC): number of sites Grade −1", "setting": "[5]; 6 weeks", "result": 6}, {"measurement": "Submucosal fibrosis (SF): number of sites Grade 0", "setting": "[5]; 6 weeks", "result": 4}, {"measurement": "Submucosal fibrosis (SF): number of sites Grade 1", "setting": "[5]; 6 weeks", "result": 12}, {"measurement": "Submucosal fibrosis (SF): number of sites Grade 2", "setting": "[5]; 6 weeks", "result": 3}, {"measurement": "Submucosal fibrosis (SF): number of sites Grade 3", "setting": "[5]; 6 weeks", "result": 1}, {"measurement": "Mucosal regeneration / wound healing on histopathology", "setting": "[5]; 6 weeks, result in words", "result": "favorable outcomes for wound healing enhancement across all 6 metrics; also recorded: enhancement to mucosal regeneration; also recorded: more commonly associated with enhanced mucosal regeneration; also recorded: improved outcome"}, {"measurement": "Angiogenesis (A): Mean score", "setting": "[5]; 6 weeks, scale 0-3", "result": 0.85}, {"measurement": "Epithelial erosion (EE): Mean score", "setting": "[5]; 6 weeks, scale 0-3", "result": 1.15}, {"measurement": "Inflammatory infiltrate (II): Mean score", "setting": "[5]; 6 weeks, scale 0-3", "result": 1.05}, {"measurement": "Submucosal fibrosis (SF): Mean score", "setting": "[5]; 6 weeks, scale 0-3", "result": 1.05}, {"measurement": "Goblet cells (GC): Mean score", "setting": "[5]; 6 weeks, scale −1-1", "result": "−0.1"}, {"measurement": "Sero-mucous glands (SMC): Mean score", "setting": "[5]; 6 weeks, scale −1-1", "result": "−0.3"}, {"measurement": "A (angiogenesis) grade", "setting": "[5]; [6]", "result": "1 (6×) and 3 and 0 (9×) and 2 (4×)"}, {"measurement": "EE (epithelial erosion) grade", "setting": "[5]; [6]", "result": "1 (8×) and 2 (6×) and 0 (5×) and 3"}, {"measurement": "II (inflammatory infiltrate) grade", "setting": "[5]; [6]", "result": "2 (4×) and 1 (13×) and 0 (3×)"}, {"measurement": "SF (submucosal fibrosis) grade", "setting": "[5]; [6]", "result": "1 (12×) and 2 (3×) and 0 (4×) and 3"}, {"measurement": "GC (goblet cells) grade", "setting": "[5]; [7]", "result": "−1 (8×) and 1 (6×) and 0 (6×)"}, {"measurement": "SMC (sero-mucous glands) grade", "setting": "[5]; [7]", "result": "−1 (6×) and 0 (14×)"}, {"measurement": "6-week histopathology scores", "setting": "[5]; result in words, driven by reduced submucosal fibrosis and angiogenesis", "result": "significantly lower"}]}]}
